Laboratory results from patent publication US11819532B2, “Peptide macrocycles against Acinetobacter baumannii” (Hoffmann-La Roche Inc., priority 2018, dated 2023).

Experiments:
A. baumannii ATCC 17978 = assay: 50% growth inhibitory concentration (IC50) determination, antimicrobial susceptibility testing; format: cell-based; conditions: Acinetobacter baumannii; 50% growth inhibition, A. baumannii strain ATCC17978, Iso-Sensitest medium; read-out: IC50 ATCC17978
Experimental: The in vitro antimicrobial activity of the compounds was alternatively determined according to the following procedure:
The assay used a 10-points Iso-Sensitest broth medium to measure quantitatively the in vitro activity of the compounds against A. baumannii ATCC 17978.
Stock compounds in DMSO were serially twofold diluted (e.g. range from 50 to 0.097 μM or from 10 to 0.020 μM final concentration) in 384 wells microtiter plates and inoculated with 49 μl the bacterial suspension in Iso-Sensitest medium to have a final cell concentration of ˜5×10^(5)CFU/ml in a final volume/well of 50 μl/well. Microtiter plates were incubated at 35±2° C.
Bacterial cell growth was determined with the measurement of optical density at X=600 nm each 20 minutes over a time course of 16h.
Growth inhibition was calculated during the logarithmic growth of the bacterial cells with determination of the concentration inhibiting 50% (IC50) and 90% (IC90) of the growth.
Table 1 provides the 50% growth inhibitory concentrations (IC50) in micromoles per liter of the compounds of present invention obtained against the A. baumannii strain ATCC17978.

[1] = Plasma precipitation screening assay; parameters: species or system rat; conditions: Wistar (Hanbrl:Wist SPF), rat, 10 min
Experimental: An aliquot (10 μL) of compound solubilized in physiological buffer or the formulation used for its parenteral administration in vivo, and of various dilutions thereof in phosphate-buffered saline (PBS), is mixed 1:1 with rat plasma. After 10 minutes incubation at room temperature the UV-absorption of the mixtures is measured and compared to absorption of blank plasma or plasma with vehicle solution. A significant (often concentration dependent) increase of absorption is indicative of precipitation.
Whole blood is obtained from WISTAR rats (Hanbrl:Wist SPF) under terminal anaesthesia after intraperitoneal injection of a pentobarbital solution (from animals euthanized for collection of tissue for other experimental purposes). Blood is collected in 1.2 mL of Heparin S-Monovette tubes (Sarstedt) for the preparation of heparin plasma.
The tubes are then centrifuged for 5 min at 5200 g at room temperature to isolate the plasma supernatant. The plasma is used in the assay within 48 h of collection (storage at 4° C.).
Test compounds are received as powder or formulated. When obtained as powder, they are solubilized in 0.9% aq. sodium chloride solution in order to get the highest indicated concentration to be tested. The solubility is visually checked and the solutions are filtered using 0.45 PVDF hydrophilic filters (Durapore®, Darmstadt, Germany), to remove possible solid impurities. pH of this initial solution might be measured in the filtered stock solutions, before proceeding to prepare a compound dilution series in PBS (1:1-dilution steps).
The assay is conducted in 384-well plates. 10 μL of rat plasma is added to 10 μL of the various compound solutions. The assay is performed in duplicate. 10 μL of vehicle (0.9% aq. sodium chloride solution, PBS) added to the plasma is used as a negative control. The absorption is measured at 362 nm.
Raw data obtained are absorbance data. The difference between absorbance of the sample and mean absorbance of vehicle is calculated. The minimal effect concentration (MEC) is defined as the lowest concentration giving an absorbance difference, OD362≥0.05.

CN1C(=O)[C@H](CCCCN)NC(=O)[C@H](CCCN)NCc2nccnc2Sc2c(Cl)ccc(-c3ccc(C(=O)O)c(Cl)c3)c2CNC(=O)[C@@H]1Cc1c[nH]c2ccccc12 (racemic) [Example 8.01, 2-chloro-4-[rac-(11S,14S,17S)-14-(4-aminobutyl)-11-(3-aminopropyl)-25-chloro-17-(1H-indo1-3-ylmethyl)-16-methyl-12,15,18-trioxo-2-thia-4,7,10,13,16,19-hexazatricyclo[19.4.0.03,8]pentacosa-1(21),3,5,7,22,24-hexaen-22-yl]benzoic acid]
IC50 (A. baumannii ATCC 17978): 28 nM
Plasma precipitation MEC [1]: 760 µmol/L

COc1cc(-c2ccc(Cl)c3c2CNC(=O)[C@H](Cc2c[nH]c4ccccc24)N(C)C(=O)[C@H](CCCCN)NC(=O)[C@H](CCCN)NCc2nccnc2S3)ccc1C(=O)O (racemic) [Example 8.03, 2-methoxy-4-[rac-(11S,14S,17S)-14-(4-aminobutyl)-11-(3-aminopropyl)-25-chloro-17-(1H-indo1-3-ylmethyl)-16-methyl-12,15,18-trioxo-2-thia-4,7,10,13,16,19-hexazatricyclo [19.4.0.03,8]pentacosa-1(25),3(8),4,6,21,23-hexaen-22-yl]benzoic acid]
IC50 (A. baumannii ATCC 17978): 78 nM
Plasma precipitation MEC [1]: 760 µmol/L

CN1C(=O)[C@H](CCCCN)NC(=O)[C@H](CCCN)NCc2cccnc2Sc2c(Cl)ccc(-c3ccc(C(=O)O)c(S(C)(=O)=O)c3)c2CNC(=O)[C@@H]1Cc1c[nH]c2ccccc12 [Example 2.00, 4-[(11S,14S,17S)-14-(4-Aminobutyl)-11-(3-aminopropyl)-25-chloro-17-(1H-indol-3-ylmethyl)-16-methyl-12,15,18-trioxo-2-thia-4,10,13,16,19-pentazatricyclo[19.4.0.03,8]pentacosa-1(25), 3(8), 4,6,21,23-hexaen-22-yl]-2-methylsulfonyl-benzoic Acid]
IC50 (A. baumannii ATCC 17978): 73 nM
Plasma precipitation MEC [1]: 950 µmol/L

CN1C(=O)[C@H](CCCCN)NC(=O)[C@H](CCCN)NCc2cccnc2Sc2c(Cl)ccc(-c3ccn4nc(C(=O)O)cc4c3)c2CNC(=O)[C@@H]1Cc1c[nH]c2ccccc12 [Example 2.01, 5-[(11S,14S,17S)-14-(4-aminobutyl)-11-(3-aminopropyl)-25-chloro-17-(1H-indo1-3-ylmethyl)-16-methyl-12,15,18-trioxo-2-thia-4,10,13,16,19-pentazatricyclo[19.4.0.03,8]pentacosa-1(25),3(8),4,6,21,23-hexaen-22-yl]pyrazolo[1,5-a]pyridine-2-carboxylic acid]
IC50 (A. baumannii ATCC 17978): 20 nM
Plasma precipitation MEC [1]: 820 µmol/L

Cc1[nH]c2ccccc2c1C[C@H]1C(=O)NCc2c(cccc2-c2ccc(C(=O)O)cc2)Sc2ncccc2CN[C@@H](CCCN)C(=O)N[C@@H](CCCCN)C(=O)N1C [Example 6.00, 4-[(11S,14S,17S)-14-(4-Aminobutyl)-11-(3-aminopropyl)-16-methyl-17-[(2-methyl-1H-indol-3-yl)methyl]-12,15,18-trioxo-2-thia-4,10,13,16,19-pentazatricyclo[19.4.0.03,8]pentacosa-1(25), 3,5,7,21,23-hexaen-22-yl]benzoic Acid]
IC50 (A. baumannii ATCC 17978): 23 nM
Plasma precipitation MEC [1]: 1090 µmol/L

Cc1[nH]c2ccccc2c1C[C@H]1C(=O)NCc2c(-c3ccn(CC(=O)O)c(=O)c3)ccc(Cl)c2Sc2ncccc2CN[C@@H](CCCN)C(=O)N[C@@H](CCCCN)C(=O)N1C [Example 7.01, 2-[4-[(1 S,14S,17S)-14-(4-Aminobutyl)-11-(3-aminopropyl)-25-chloro-16-methyl-17-[(2-methyl-1H-indol-3-yl)methyl]-12,15,18-trioxo-2-thia-4,10,13,16,19-pentazatricyclo[19.4.0.03,8]pentacosa-1(25), 3(8), 4,6,21,23-hexaen-22-yl]-2-oxo-1-pyridyl]acetic Acid]
IC50 (A. baumannii ATCC 17978): 46 nM
Plasma precipitation MEC [1]: 1650 µmol/L

CN1C(=O)[C@H](CCCCN)NC(=O)[C@H](CCCN)NCc2nccnc2Sc2c(Cl)ccc(-c3ccc(C(=O)O)c(F)c3)c2CNC(=O)[C@@H]1Cc1c[nH]c2ccccc12 [Example 8.02, 4-[(11S,14S,17S)-14-(4-aminobutyl)-11-(3-aminopropyl)-25-chloro-17-(1H-indo1-3-ylmethyl)-16-methyl-12,15,18-trioxo-2-thia-4,7,10,13,16,19-hexazatricyclo[19.4.0.03,8]pentacosa-1(21),3,5,7,22,24-hexaen-22-yl]-2-fluoro-benzoic acid]
IC50 (A. baumannii ATCC 17978): 19 nM
Plasma precipitation MEC [1]: 380 µmol/L

CN1C(=O)[C@H](CCCCN)NC(=O)[C@H](CCCN)NCc2cccnc2Sc2c(F)ccc(-c3ccc(C(=O)O)cc3)c2CNC(=O)[C@@H]1Cc1c[nH]c2ccccc12 [Example 9.00, 4-[(1 S,14S,17S)-14-(4-aminobutyl)-1-(3-aminopropyl)-25-fluoro-17-(1H-indol-3-ylmethyl)-16-methyl-12,15,18-trioxo-2-thia-4,10,13,16,19-pentazatricyclo[19.4.0.03,8]pentacosa-1(25), 3(8), 4,6,21,23-hexaen-22-yl]benzoic Acid]
IC50 (A. baumannii ATCC 17978): 20 nM
Plasma precipitation MEC [1]: 870 µmol/L

CN1C(=O)[C@H](CCCCN)NC(=O)[C@H](CCCN)NCc2cccnc2Sc2c(F)ccc(-c3ccn(CC(=O)O)c(=O)c3)c2CNC(=O)[C@@H]1Cc1c[nH]c2ccccc12 [Example 9.01, 2-[4-[(11S,14S,17S)-14-(4-Aminobutyl)-11-(3-aminopropyl)-25-fluoro-17-(1H-indo1-3-ylmethyl)-16-methyl-12,15,18-trioxo-2-thia-4,10,13,16,19-pentazatricyclo[19.4.0.03,8]pentacosa-1(25),3(8),4,6,21,23-hexaen-22-yl]-2-oxo-1-pyridyl]acetic acid]
IC50 (A. baumannii ATCC 17978): 81 nM
Plasma precipitation MEC [1]: >1690 µmol/L

Cc1ccc(-c2ccc(C(=O)O)cc2)c2c1Sc1ncccc1CN[C@@H](CCCN)C(=O)N[C@@H](CCCCN)C(=O)N(C)[C@@H](Cc1c[nH]c3ccccc13)C(=O)NC2 [Example 10.00, 4-[(11S,14S,17S)-14-(4-Aminobutyl)-1-(3-aminopropyl)-17-(1H-indol-3-ylmethyl)-16,25-dimethyl-12,15,18-trioxo-2-thia-4,10,13,16,19-pentazatricyclo[19.4.0.03,8]pentacosa-1(25), 3(8), 4,6,21,23-hexaen-22-yl]benzoic Acid]
IC50 (A. baumannii ATCC 17978): 24 nM
Plasma precipitation MEC [1]: 870 µmol/L

Cc1ccc(-c2ccn(CC(=O)O)c(=O)c2)c2c1Sc1ncccc1CN[C@@H](CCCN)C(=O)N[C@@H](CCCCN)C(=O)N(C)[C@@H](Cc1c[nH]c3ccccc13)C(=O)NC2 [Example 10.01, 2-[4-[(1S,4S,17S)-14-(4-Aminobutyl)-11-(3-aminopropyl)-17-(1H-indol-3-ylmethyl)-16,25-dimethyl-12,15,18-trioxo-2-thia-4,10,13,16,19-pentazatricyclo[19.4.0.03,8]pentacosa-1(25), 3(8), 4,6,21,23-hexaen-22-yl]-2-oxo-1-pyridyl]acetic Acid]
IC50 (A. baumannii ATCC 17978): 78 nM
Plasma precipitation MEC [1]: >1700 µmol/L

COc1ccc(-c2ccc(C(=O)O)cc2)c2c1Sc1ncccc1CN[C@@H](CCCN)C(=O)N[C@@H](CCCCN)C(=O)N(C)[C@@H](Cc1c[nH]c3ccccc13)C(=O)NC2 [Example 11.00, 4-[(11S,14S,17S)-14-(4-Aminobutyl)-11-(3-aminopropyl)-17-(1H-indol-3-ylmethyl)-25-methoxy-16-methyl-12,15,18-trioxo-2-thia-4,10,13,16,19-pentazatricyclo[19.4.0.03,8]pentacosa-1(25), 3(8), 4,6,21,23-hexaen-22-yl]benzoic Acid]
IC50 (A. baumannii ATCC 17978): 71 nM
Plasma precipitation MEC [1]: 1720 µmol/L

CN1C(=O)[C@H](CCCN)NC(=O)[C@H](CCCN)NCc2cccnc2Sc2c(F)ccc(-c3ccc(C(=O)O)nc3)c2CNC(=O)[C@@H]1Cc1c[nH]c2ccccc12 [Example 14.01, 5-[(11S,14S,17S)-11,14-bis(3-Aminopropyl)-25-fluoro-17-(1H-indol-3-ylmethyl)-16-methyl-12,15,18-trioxo-2-thia-4,10,13,16,19-pentazatricyclo[19.4.0.03,8]pentacosa-1(25), 3(8), 4,6,21,23-hexaen-22-yl]pyridine-2-carboxylic Acid]
IC50 (A. baumannii ATCC 17978): 90 nM
Plasma precipitation MEC [1]: 880 µmol/L
